Assay results taken from patent US6998470B1, “Process for large-scale isolation and purification of hypothalamic inhibitory factor” (Bion, Inc., priority 1997, dated 2006).

Tests used:
purified Na, K-ATPase = conditions: Haupert et al. 1984; read-out: affinity constant for binding to purified Na, K-ATPase; cited from earlier work
[1] = molecular target: T1, monoclonal antibody 26-10 (Mus musculus, UniProt P01631); assay: 125I competition plate assay using goat-anti-mouse IgG Fab to bind the antibodies; set-up: species or system mice; conditions: read-out: relative affinity (IC50); binding to anti-digoxin mAb 26-10
T1 construct: fused on or other part: Heavy chain of mAb 26-10 (A/J mouse), which forms most of the digoxin/ouabain pocket
Text: (§1) Several available anti-digoxin antibodies were studied to determine relative affinity for ouabain.
Monoclonal antidigoxin antibody 26-10 was obtained from A/J mice immunized with a digoxin-human serum albumin (Dig-HSA) conjugate and spleen cells were fused with the non-secreting murine myeloma Sp2/0 cell line (Mudgett-Hunter, M., et al. J. Immunol., 129:1165–1172 (1982)). Hybridoma cells identified by radioimmunoassay (RIA) as secreting anti-digoxin antibody were cloned and grown in tissue culture and amplified in the ascites form in mice. Digoxin specific hybridoma proteins were purified from ascites by a variety of chromatographic methods, including ion-exchange chromatography on DEAE cellulose and affinity chromatography on Digoxin-BSA-Sepharose or ouabain-amine Sepharose.

[2] = test system: Na+-K+-ATPase pump activity in human erythrocytes; assay: standard human erythrocyte 86Rb+ uptake assay; format: cell-based; conditions: RBC 86Rb+ uptake assay
Text: As defined herein, purified HIF refers to HIF which is substantially free of or isolated from other tissue or fluid protein components and contaminants. In addition, the purified HIF of the present invention has at least 40% activity recovery. Preferably, the purified HIF has about 50–75% activity recovery, more preferably the purified HIF has about 75–90% activity recovery and most preferably, the purified HIF has about 90–95% activity recovery. As defined herein, “activity recovery” of HIF is the activity of HIF as measured indirectly by, for example a biological assay such as specific inhibition of Na^+-K^+-ATPase pump activity in human erythrocytes, or as measured directly, for example, by UV absorbance following HPLC chromatography.
as §1

T1 sequence (P01631 whole entry, the tested form may be a part): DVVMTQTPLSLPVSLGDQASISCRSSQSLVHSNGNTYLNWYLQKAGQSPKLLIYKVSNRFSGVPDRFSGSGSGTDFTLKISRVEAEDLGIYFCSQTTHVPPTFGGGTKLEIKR

For `C[C@@H]1O[C@@H](O[C@H]2C[C@@H](O)[C@]3(CO)[C@H]4[C@H](O)C[C@]5(C)[C@@H](C6=CC(=O)OC6)CC[C@]5(O)[C@@H]4CC[C@]3(O)C2)[C@H](O)[C@H](O)[C@H]1O` [ouabain], the Kd (purified Na, K-ATPase) is listed as roughly 0.001 µM, the IC50 [1] is listed as 0.3 µM and the “amount equal to 1 U (1 U=50% inhibition under standard conditions)” value [2] is listed as “approximately 0.75 pmol”.
